Results as given in patent US9234006B2, “Compounds” (Novacta Biosystems Limited, priority 2011, dated 2016).
Where a SMILES comes first, the peptide text is derived from it. Bridges are numbered along the chain shown (N, C = ends). [ ]: non-standard residue; d: D form. The star is where a group is joined. ξ: configuration not given here. ξHexahydromandeloyl = O=C(C(O)C1CCCCC1)*; Thr(3ξ) = CC(O)[C@H](N)C(=O)O; Propanoyl(3-OH) = O=C(CCO)*; X5 = CC(C)[C@H](N)CCC(=O)*; Octanoyl = CCCCCCCC(=O)*; Dab = NCC[C@H](N)C(=O)O

Key:
Assay in all cases: MIC susceptibility testing, broth microdilution in CaMHB
P. aeruginosa ATCC10145 = type: cell-based, Pseudomonas aeruginosa; settings: Table 4A, different batches of cation-adjusted Muller-Hinton broth
Description: (§1) To evaluate the potency and spectrum of the compounds, susceptibility testing was performed against four strains of each of the four Gram negative pathogens, Escherichia coli, Pseudomonas aeruginosa, Klebsiella pneumoniae and Acinetobacter baumannii.
(§2) The day before testing, 3 to 4 colonies were picked from fresh Mueller-Hinton Agar (MHA) plate and transferred into 10 mL of Cation adjusted MHB (CaMHB). Cultures were incubated at 37° C. 250 rpm for 18-20 hours before being diluted 100-fold in fresh CaMHB. The subcultures were grown further until the OD600 reached 0.2-0.3 corresponding to […]. The actively growing cultures were diluted 100-fold in fresh medium and used for the inoculum.
(§3) The assays were performed in duplicate.
(§4) Data was obtained under similar conditions to Table 4 except that different batches of cation-adjusted Muller-Hinton broth were used. The MIC values for these compounds are compared with those values obtained for Polymyxin B, Colistin Sulphate, CB-182,804 and NAB739 (as the TFA salt). CB-182,804 is a polymyxin decapeptide derivative with an aryl urea substituent at the N-terminus, which has been claimed to have lower toxicity than Polymyxin B (compound 5 in WO 2010/075416. See page 37). NAB739 has been described previously by Vaara et al.

P. aeruginosa ATCC27853 = type: cell-based, Pseudomonas aeruginosa; settings: Table 4A, different batches of cation-adjusted Muller-Hinton broth
Description: as §1, §2, §3, §4

P. aeruginosa ATCC 9721 = type: cell-based, Pseudomonas aeruginosa; settings: P. aeruginosa ATCC9721; Table 4A, different batches of cation-adjusted Muller-Hinton broth
Description: as §1, §2, §3, §4

[1] = tested on: P. aeruginosa ATCCCRM-9027; type: cell-based, Pseudomonas aeruginosa; settings: P. aeruginosa AATCCRM 9027; Table 4A, different batches of cation-adjusted Muller-Hinton broth
Description: as §1, §2, §3, §4

E. coli ATCC25922 = type: cell-based, Escherichia coli; settings: Table 4A, different batches of cation-adjusted Muller-Hinton broth
Description: as §1, §2, §3, §4

E. coli ATCC700928 = type: cell-based, Escherichia coli; settings: Table 4A, different batches of cation-adjusted Muller-Hinton broth
Description: as §1, §2, §3, §4

A. baumannii NCTC7844 = type: cell-based, Acinetobacter baumannii; settings: Table 4A, different batches of cation-adjusted Muller-Hinton broth
Description: as §1, §2, §3, §4

A. baumannii NCTC13423 = type: cell-based, Acinetobacter baumannii; settings: Table 4A, different batches of cation-adjusted Muller-Hinton broth
Description: as §1, §2, §3, §4

A. baumannii ATCC19606 = type: cell-based, Acinetobacter baumannii; settings: Table 4A, different batches of cation-adjusted Muller-Hinton broth
Description: as §1, §2, §3, §4

A. baumannii ATCCBAA-747 = type: cell-based, Acinetobacter baumannii; settings: Table 4A, different batches of cation-adjusted Muller-Hinton broth
Description: as §1, §2, §3, §4

K. pneumoniae ATCC 4352 = type: cell-based, Klebsiella pneumoniae; settings: K. pneumoniae ATCC4352; Table 4A, different batches of cation-adjusted Muller-Hinton broth
Description: as §1, §2, §3, §4

K. pneumoniae NCTC7427 = type: cell-based, Klebsiella pneumoniae; settings: Table 4A, different batches of cation-adjusted Muller-Hinton broth
Description: as §1, §2, §3, §4

K. pneumoniae NCTC8172 = type: cell-based, Klebsiella pneumoniae; settings: Table 4A, different batches of cation-adjusted Muller-Hinton broth
Description: as §1, §2, §3, §4

E. coli NCTC9001 = type: cell-based, Escherichia coli; settings: Table 4A, different batches of cation-adjusted Muller-Hinton broth
Description: as §1, §2, §3, §4

E. coli NCTC12900 = type: cell-based, Escherichia coli; settings: Table 4A, different batches of cation-adjusted Muller-Hinton broth
Description: as §1, §2, §3, §4

| MIC (P. aeruginosa ATCC27853) | MIC (E. coli ATCC25922) | MIC (E. coli ATCC700928) | MIC (A. baumannii ATCC19606) | MIC (K. pneumoniae ATCC 4352) | SMILES | MIC (P. aeruginosa ATCC10145) | MIC (P. aeruginosa ATCC 9721) | MIC [1] | MIC (A. baumannii NCTC7844) | MIC (A. baumannii NCTC13423) | MIC (A. baumannii ATCCBAA-747) | MIC (K. pneumoniae NCTC7427) | MIC (K. pneumoniae NCTC8172) | MIC (E. coli NCTC9001) | MIC (E. coli NCTC12900) |
| --- | --- | --- | --- | --- | --- | --- | --- | --- | --- | --- | --- | --- | --- | --- | --- |
| 0.125 micrograms/mL | 8 micrograms/mL | 2 micrograms/mL | 2 micrograms/mL | 0.5 micrograms/mL | CC(C)C[C@@H]1NC(=O)[C@@H](Cc2ccccc2)NC(=O)[C@H](CCN)NC(=O)[C@@H](NC(=O)[C@H](CCN)NC(=O)[C@@H](NC(=O)CC[C@@H](N)C(C)C)C(C)O)CCNC(=O)[C@H](C(C)O)NC(=O)[C@H](CCN)NC(=O)[C@H](CCN)NC1=O (stereo partly drawn) [Example 29, 4-(R)-Amino-5-methylhexanoyl polymyxin B nonapeptide] (X5-[Thr(3ξ)][Dab][Dab][Dab][dF]L[Dab][Dab][Thr(3ξ)]; lactam 3-C) | 0.5 micrograms/mL | 0.25 micrograms/mL | 0.5 micrograms/mL | 2 micrograms/mL | 0.5 micrograms/mL | 1 micrograms/mL | 0.5 micrograms/mL | >32 micrograms/mL |  |  |
| 0.5 micrograms/mL | >32 micrograms/mL |  | >32 micrograms/mL | 4 micrograms/mL | CC(C)C[C@@H]1NC(=O)[C@@H](Cc2ccccc2)NC(=O)[C@H](CCN)NC(=O)[C@@H](NC(=O)[C@H](CCN)NC(=O)[C@@H](NC(=O)CCO)C(C)O)CCNC(=O)[C@H](C(C)O)NC(=O)[C@H](CCN)NC(=O)[C@H](CCN)NC1=O (some centres unmarked) [Example 33, 3-Hydroxypropanoyl polymyxin B nonapeptide] ({Propanoyl(3-OH)}-[Thr(3ξ)][Dab][Dab][Dab][dF]L[Dab][Dab][Thr(3ξ)]; lactam 3-C) |  |  |  |  |  |  |  |  |  |  |
| 1 micrograms/mL | 2 micrograms/mL |  | 1 micrograms/mL | 2 micrograms/mL | CCCCCCCC(=O)N[C@H](C(=O)N[C@H](CO)C(=O)N[C@H]1CCNC(=O)[C@H]([C@@H](C)O)NC(=O)[C@H](CCN)NC(=O)[C@H](CCN)NC(=O)[C@H](CC(C)C)NC(=O)[C@@H](Cc2ccccc2)NC(=O)[C@H](CCN)NC1=O)[C@@H](C)O [NAB739, reference compound] (Octanoyl-T[dS][Dab][Dab][dF]L[Dab][Dab]T; lactam 3-C; N-terminus assumed) |  |  |  |  |  |  |  |  |  |  |

| SMILES | MIC (P. aeruginosa ATCC27853) | MIC (E. coli ATCC25922) | MIC (E. coli ATCC700928) | MIC (A. baumannii ATCC19606) | MIC (K. pneumoniae ATCC 4352) | MIC (P. aeruginosa ATCC10145) | MIC (P. aeruginosa ATCC 9721) | MIC [1] | MIC (A. baumannii NCTC7844) | MIC (A. baumannii NCTC13423) | MIC (A. baumannii ATCCBAA-747) | MIC (K. pneumoniae NCTC7427) | MIC (K. pneumoniae NCTC8172) | MIC (E. coli NCTC9001) | MIC (E. coli NCTC12900) |
| --- | --- | --- | --- | --- | --- | --- | --- | --- | --- | --- | --- | --- | --- | --- | --- |
| CC(C)C[C@@H]1NC(=O)[C@@H](Cc2ccccc2)NC(=O)[C@H](CCN)NC(=O)[C@@H](NC(=O)[C@H](CCN)NC(=O)[C@@H](NC(=O)C(O)C2CCCCC2)C(C)O)CCNC(=O)[C@H](C(C)O)NC(=O)[C@H](CCN)NC(=O)[C@H](CCN)NC1=O (stereo partly drawn) [Example 34, 2-(R,S)-(2-Hydroxy-2-cyclohexyl) ethanoyl polymyxin B nonapeptide] (ξHexahydromandeloyl-[Thr(3ξ)][Dab][Dab][Dab][dF]L[Dab][Dab][Thr(3ξ)]; lactam 3-C) | 0.125 micrograms/mL | 0.5 micrograms/mL |  | 1 micrograms/mL | 1 micrograms/mL | 0.5 micrograms/mL | 0.25 micrograms/mL | 0.5 micrograms/mL | 2 micrograms/mL | 0.25 micrograms/mL | 1 micrograms/mL | 0.5 micrograms/mL | >32 micrograms/mL | 8 micrograms/mL | 8 micrograms/mL |
